Data on one molecule can be found in patent US10087191B2, “Piperidine derivative and preparation method and pharmaceutical use thereof” (Jiangsu Hengrui Medicine Co., Ltd., priority 2015, dated 2018).

The structures appear in SMILES notation.

For one series, the target named is estrogen receptor (ER) (Homo sapiens (Human), UniProt P03372). The experiment in a line: Inhibition of the binding of estrogen (E) to estrogen receptor (ER), MCF-7/ERE-luciferase reporter cells. The format is cell-based. Particulars: MCF-7/ERE-luciferase cells, 0.1 nM estradiol, 24 hours; read-out: IC50 value of inhibition effect on the binding of E to ER.
Sequence of estrogen receptor (ER) (P03372 whole entry): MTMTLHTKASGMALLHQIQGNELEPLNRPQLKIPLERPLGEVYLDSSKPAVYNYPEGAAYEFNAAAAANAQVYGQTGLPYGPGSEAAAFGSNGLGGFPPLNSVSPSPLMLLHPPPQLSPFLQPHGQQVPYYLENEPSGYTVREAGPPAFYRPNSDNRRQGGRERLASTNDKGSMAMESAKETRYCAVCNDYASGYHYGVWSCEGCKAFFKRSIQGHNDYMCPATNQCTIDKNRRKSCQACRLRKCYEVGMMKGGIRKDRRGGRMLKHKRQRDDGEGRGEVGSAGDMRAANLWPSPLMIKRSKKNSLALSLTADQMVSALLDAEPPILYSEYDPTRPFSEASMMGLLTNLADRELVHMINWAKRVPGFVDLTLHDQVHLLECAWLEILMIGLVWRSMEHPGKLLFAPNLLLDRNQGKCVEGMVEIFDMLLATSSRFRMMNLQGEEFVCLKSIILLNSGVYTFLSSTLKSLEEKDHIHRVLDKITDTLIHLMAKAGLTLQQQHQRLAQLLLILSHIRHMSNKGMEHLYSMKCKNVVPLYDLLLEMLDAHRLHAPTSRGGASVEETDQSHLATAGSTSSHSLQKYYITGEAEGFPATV
The subject of the next series is MCF7 cells. In words: Inhibition of the proliferation of MCF7 cells (Cell Titer-Glo). It is filed as cell-based. Particulars: Homo sapiens, MCF-7 cells, 72 hours, read-out: IC50 value of inhibition effect on the proliferation of MCF7 cells. The gist of the method: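 Viability by Cell Titer-Glo luminescence; IC50 from signal versus log concentration.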
(In general: ATP-based viability assays read luminescence as a measure of living cells.)

Another series concerns the target ERα (Homo sapiens (Human), UniProt P03372). The experiment in a line: Degradation effect on ERα in MCF-7 cells (ERα Duoset ELISA). It is filed as cell-based. Particulars: MCF-7 cells; read-out: IC50 value of the degradation effect on ERα.
A short description of series [1]: Pharmacokinetics assay in BALB/C nude mice after intragastrical administration. The format is in vivo. Particulars: female, mouse, plasma, po, 3 mg/kg. The gist of the method:
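Fasted female BALB/C nude mice were dosed intragastrically (0.2 mL/10 g) with compound in 9% PEG400/0.5% Tween 80/0.5% PVP/90% aqueous 0.5% CMC. Blood was taken at 0.5–24.0 h (3 mice per time point), and plasma levels were measured by LC/MS/MS.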

Sequence of ERα (P03372 whole entry): as above

The AUC is concentration integrated over time. As a reminder, the half-life is the time needed for the level to fall by half in the phase considered. For orientation: MRT means a mean duration of stay, worked out from the concentration-time curve. What is called Cmax is the highest concentration seen after dosing. Regarding `CC1Cc2c(oc3ccc(-c4cnn(C)c4)cc23)C(c2c(F)cc(/C=C/C(=O)O)cc2F)N1CC(C)(C)F` [Example 89, (E)-3-(3,5-difluoro-4-((1R,3R/1S,3S)-2-(2-fluoro-2-methylpropyl)-3-methyl-6-(1-methyl-1H-pyrazol-4-yl)-1,2,3,4-tetrahydrobenzofuro[2,3-c]pyridin-1-yl)phenyl)acrylic acid], the IC50 stood at 0.21 nM at estrogen receptor (ER) and 0.08 nM in the series on MCF7 cells. Further, on ERα, the DC50 was 0.31 nM. In addition, the area under the curve (AUC) in series [1] (read-out: Area Under Curve AUC) stood at 7710 ng·h/mL. Also, the CL/F in series [1] (read-out: Clearance CL/F (converted)) is 108 mL/min/kg. Further, the half-life in series [1] (read-out: Half-Life t½ (converted)) is 3.97 h. Also, the MRT in series [1] (read-out: Mean Residence Time MRT) was found to be 5.69 h. For the same molecule, the Cmax in series [1] (read-out: Plasma Conc. Cmax) was found to be 1270 ng/mL.
